Source: PMC9936921 (Oncogene, 2018)
Like-named read-outs stand apart in the source and are kept apart here. Values belong to the compound of their own block, whether it stands above or below them.

Experiments:
Experiment in all cases: SPR
Assay type in all cases: binding
[1] = molecular target: CD99 (Homo sapiens, UniProt P14209)
[2] = molecular target: T1, CD99 (Homo sapiens, UniProt P14209); remark: listed apart in the source
T1 sequence (P14209 23-185): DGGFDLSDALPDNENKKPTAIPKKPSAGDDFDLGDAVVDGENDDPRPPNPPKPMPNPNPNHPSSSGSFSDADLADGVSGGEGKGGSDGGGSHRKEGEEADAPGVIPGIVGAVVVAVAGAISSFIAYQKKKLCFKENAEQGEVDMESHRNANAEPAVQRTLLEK

[3] = molecular target: T1, CD99; remark: listed apart in the source

Structure (SMILES): Nc1nc(Cl)nc2c1ncn2[C@H]1C[C@H](O)[C@@H](CO)O1 [cladribine]
- Kd [1]: 3.8 ± 3.3 µM

- Kd [2]: 3.7 µM
Structure (SMILES): Nc1nc(Cl)nc2c1ncn2[C@@H]1O[C@H](COP(=O)(O)OP(=O)(O)OP(=O)(O)O)[C@@H](O)[C@@H]1F [clofarabine-5’-triphosphate]

- Kd [3]: 5.3 ± 3.2 µM
Structure (SMILES): Nc1nc(Cl)nc2c1ncn2[C@@H]1O[C@H](CO)[C@@H](O)[C@@H]1F [clofarabine]
